Source: PubChem BioAssay (NCI)
“And” between values parts separate entries of the source, which are not always exact repeats. Equal values may be shown once.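 How tested: cells in 96-well plates exposed to compound for 48 hours at five concentrations. Here, GI50 denotes the concentration required for 50% inhibition of growth. The concentration for full growth arrest is given as TGI.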

Columns and labels:
Assay in all cases: DTP human tumour cell line panel, 48 h
UACC-62 melanoma = system: UACC-62 melanoma
OVCAR-3 ovarian = system: OVCAR-3 ovarian
HOP-62 NSCLC = system: HOP-62 NSCLC
SF-295 CNS = system: SF-295 CNS
SK-MEL-2 melanoma = system: SK-MEL-2 melanoma
MDA-MB-435 = system: MDA-MB-435
K-562 leukemia = system: K-562 leukemia
A549 NSCLC = system: A549 NSCLC
SF-539 CNS = system: SF-539 CNS
HT29 colon = system: HT29 colon

Compound | GI50 (UACC-62 melanoma) | TGI (UACC-62 melanoma) | GI50 (OVCAR-3 ovarian) | TGI (OVCAR-3 ovarian) | GI50 (HOP-62 NSCLC) | TGI (HOP-62 NSCLC) | GI50 (SF-295 CNS) | TGI (SF-295 CNS) | GI50 (SK-MEL-2 melanoma) | TGI (SK-MEL-2 melanoma) | GI50 (MDA-MB-435) | TGI (MDA-MB-435) | GI50 (K-562 leukemia) | TGI (K-562 leukemia) | GI50 (A549 NSCLC) | TGI (A549 NSCLC) | TGI (SF-539 CNS) | TGI (HT29 colon) | GI50 (SF-539 CNS) | GI50 (HT29 colon)
O=C(O)c1cccc(COc2ccc([N+](=O)[O-])cc2Cl)c1 | > 100 µM | > 100 µM | 50.3 µM | > 100 µM | > 100 µM | > 100 µM | > 100 µM | > 100 µM | > 100 µM | > 100 µM | > 100 µM | > 100 µM | 37.2 µM | > 100 µM | > 100 µM | > 100 µM | – | – | – | –
CC(C)(C)c1ccc2c(c1)S(=O)(=O)Nc1ccc(Cl)cc1NS(=O)(=O)c1cc(C(C)(C)C)ccc1OCCOCCOCCO2 | – | > 100 µM | – | > 100 µM | – | > 100 µM | – | > 100 µM | – | > 100 µM | – | – | – | > 100 µM | – | > 100 µM | > 100 µM | > 100 µM | – | –
O=C(CC(=O)C1CCOC1=O)C(=O)Nc1cccc(Cl)c1 (configuration not stated) | – | > 100 µM | – | > 100 µM | – | > 100 µM | – | > 100 µM | – | > 100 µM | – | – | – | > 100 µM | – | > 100 µM | > 100 µM | > 100 µM | – | –
COC(=O)c1cc2c(o1)-c1nccc3c1c(nc1ccccc13)C2=O | – | – | 1.26 µM | 4.37 µM | 1.4 µM | 11 µM | 4.51 µM | 18.3 µM | – | – | 0.538 µM | 1.81 µM | – | – | 4.66 µM | 21.1 µM | 9.7 µM | 24.8 µM | 2.69 µM | 8.01 µM
CCC(C)(O)c1cnc(CC(C)C)c(=O)n1O (configuration not stated) | – | > 100 µM | – | 81.6 µM | – | > 100 µM | – | > 100 µM | – | > 100 µM | – | > 100 µM | – | 47.8 µM | – | > 100 µM | – | > 100 µM | – | –
COC(=O)C1=COC(C)C2CN3CCc4c([nH]c5ccccc45)C3CC12 (configuration not stated) | 24.4 µM and > 100 µM | > 100 µM | 24.2 µM and > 100 µM | > 100 µM | – | > 100 µM | 30.6 µM and 72.9 µM | > 100 µM | 20 µM and > 100 µM | 92.1 µM and > 100 µM | – | > 100 µM | – | – | 37.6 µM and > 100 µM | > 100 µM | 59.5 µM and > 100 µM | 27.2 µM and > 100 µM | 22.4 µM and > 100 µM | 13.8 µM and > 100 µM
Nc1ccccc1C(=O)/C=C/c1c(O)ccc2ccccc12 | – | > 100 µM | – | > 100 µM | – | > 100 µM | – | > 100 µM | – | > 100 µM | – | – | – | > 100 µM | – | > 100 µM | > 100 µM | > 100 µM | – | –
O=C(Nc1cc(Cl)ccc1O)c1ccc(Nc2ccnc(C(F)(F)F)c2)cc1 | 2.3 µM | 15.5 µM | 2.16 µM | 5.58 µM | 3.23 µM | 23.7 µM | 2.2 µM | 7.03 µM | – | – | 2.95 µM | 9.53 µM | 2.89 µM | > 100 µM | 3.97 µM | > 100 µM | > 100 µM | > 100 µM | 3.29 µM | 6.35 µM
CC1=NN(C(=O)CC(=O)Nc2ccccc2F)C(=O)C1N=Nc1ccccc1[N+](=O)[O-] (configuration not stated) | – | 69 µM | – | > 100 µM | – | > 100 µM | – | > 100 µM | – | > 100 µM | – | – | – | > 100 µM | – | > 100 µM | > 100 µM | > 100 µM | – | –
Cc1ccccc1C1=[N+]([O-])c2ccc(Cl)cc2C1=O | – | 24.9 µM | – | 7.17 µM | – | 42.6 µM | – | 29.1 µM | – | 46 µM | – | – | – | 24.1 µM | – | 34.2 µM | 31.6 µM | 20.3 µM | – | –
COc1ccc(-c2ccc3c(N4CCOC[C@@H]4C)nc(N4CCOC[C@@H]4C)nc3n2)cc1CO | 0.00337 µM and 0.019 µM | – | 0.00504 µM and 0.0334 µM | > 34.6 µM | 0.00514 µM and 0.028 µM | 1.65 µM and 0.527 µM | 0.00412 µM and < 0.011 µM | 0.0462 µM and 0.18 µM | – | – | 0.00531 µM and 0.0227 µM | 0.0557 µM and 0.263 µM | 0.012 µM and 0.0551 µM | > 100 µM | 0.0052 µM and 0.0253 µM | 1.78 µM and 0.57 µM | 0.0831 µM and 0.268 µM | > 10 µM and 5.9 µM | 0.00431 µM and 0.026 µM | 0.00674 µM and 0.0385 µM
COc1cccc(/C=N/[N-]C(=O)c2ccncc2)c1[O-].COc1cccc(/C=N/[N-]C(=O)c2ccncc2)c1[O-].[O]=[U](=[O])([OH2+])[OH2+] | 3.66 µM | 19.4 µM | 3.08 µM | > 100 µM | 3.71 µM | 24.9 µM | 5.86 µM | > 54.7 µM | 19.8 µM | > 74 µM | – | – | 5.29 µM | > 100 µM | 27.9 µM | > 100 µM | > 42.8 µM | > 100 µM | 4.27 µM | 30.7 µM
O=C1c2ccccc2-c2c1c1ccccc1c(=O)n2CCN1CCNCC1 | 1.37 µM | 3.15 µM | 1.12 µM | 6.93 µM | 1.92 µM | 6.27 µM | 0.552 µM | 3.05 µM | 12.7 µM | 36.2 µM | 1.97 µM | 4.2 µM | 0.902 µM | 5.05 µM | 0.576 µM | 3.6 µM | – | 8.02 µM | – | 1.58 µM
CC1(C)CN=C(NN=C(/C=C/c2ccc(C(F)(F)F)cc2)/C=C/c2ccc(C(F)(F)F)cc2)NC1 | 1.72 µM | 3.31 µM | 1.67 µM | 3.05 µM | 1.93 µM | 3.56 µM | 1.72 µM | 3.28 µM | – | – | 1.59 µM | 3 µM | – | – | 1.36 µM | 2.91 µM | 3.45 µM | 2.14 µM | 1.85 µM | 0.785 µM
Cc1cc2c(c(C(N)=O)c1C)-c1ccccc1C2=O | – | > 100 µM | – | > 100 µM | – | > 100 µM | – | > 100 µM | – | > 100 µM | – | – | – | > 100 µM | – | > 100 µM | > 100 µM | > 100 µM | – | –
COc1ccc(-c2nc(-c3cc(OC)cc(OC)c3)[nH]c2-c2ccc(OC)cc2)cc1 | 4.75 µM | > 100 µM | 5.95 µM | > 100 µM | > 100 µM | > 100 µM | 5.51 µM | > 100 µM | – | – | 5.98 µM | > 100 µM | 5.02 µM | > 100 µM | 5.31 µM | > 100 µM | > 100 µM | > 100 µM | > 100 µM | 4.97 µM
COC(=O)/C(=N/O)C(C(=O)C=C(C)C)C(=O)C(=O)Nc1nc2ccc([N+](=O)[O-])cc2s1 (configuration not stated) | – | > 100 µM | – | 76.1 µM | – | > 100 µM | – | > 100 µM | – | 71.9 µM | – | – | – | > 100 µM | – | > 100 µM | 78.3 µM | > 100 µM | – | –
O=C1NCCS(=O)(=O)N[C@@H](CC2=CC=CCC2)C(=O)N2CCCC12 (some centres not stated) | – | > 100 µM | – | > 100 µM | – | > 100 µM | – | > 100 µM | – | > 100 µM | – | – | – | > 100 µM | – | > 100 µM | > 100 µM | > 100 µM | – | –
Cn1cc(-c2csc(-c3cn(CCCCN4CCCCC4)c4ccccc34)n2)c2cccnc21 | 1.79 µM | 3.27 µM | 1.71 µM | 3.13 µM | 1.6 µM | 3.19 µM | 1.64 µM | 3.06 µM | – | – | 1.13 µM | 2.36 µM | – | – | 1.79 µM | 3.37 µM | – | 3.1 µM | – | 1.58 µM
O=[N+]([O-])c1cccc(C2=NOC(C3CCCCC3)C2)c1 (configuration not stated) | – | > 100 µM | – | > 100 µM | – | > 100 µM | – | > 100 µM | – | > 100 µM | – | – | – | > 100 µM | – | > 100 µM | > 100 µM | > 100 µM | – | –
CC1CC(O)C(=O)C(O[C@@H]2C[C@@H]3CC[C@@H]4[C@H](CC[C@]5(C)C(C6=CC(=O)OC6)CC[C@]45O)[C@@]3(C=O)C[C@H]2O)O1 (some centres not stated) | – | 0.178 µM | – | 0.0346 µM | – | 0.0492 µM | – | 0.149 µM | – | – | – | 0.177 µM | – | – | – | < 0.0199 µM | 0.0586 µM | 0.171 µM | – | –
CCCC(=O)C1=C(O)C(Cc2c(O)c(C)c(O)c(C(=O)CCC)c2O)=C(O)C(C)(C)C1=O | – | > 50 µM | – | > 50 µM | – | > 50 µM | – | > 50 µM | – | > 50 µM | – | > 50 µM | – | 48 µM | – | > 50 µM | – | > 50 µM | – | –
Nc1nc(-c2ccc(Cl)c([N+](=O)[O-])c2)cs1 | – | > 100 µM | – | > 100 µM | – | > 100 µM | – | > 100 µM | – | > 100 µM | – | – | – | > 100 µM | – | > 100 µM | > 100 µM | > 100 µM | – | –
COC(=O)C(=O)C(C(C)=O)C(=O)NCc1ccc(OC)c(OC)c1 (configuration not stated) | – | > 100 µM | – | > 100 µM | – | > 100 µM | – | > 100 µM | – | > 100 µM | – | – | – | > 100 µM | – | > 100 µM | > 100 µM | > 100 µM | – | –
O=c1[nH]cnc(NC2C=C(CO)C(O)C2O)c1[N+](=O)[O-] (configuration not stated) | – | > 100 µM | – | > 100 µM | – | > 100 µM | – | > 100 µM | – | > 100 µM | – | – | – | > 100 µM | – | > 100 µM | > 100 µM | > 100 µM | – | –
CCN1c2ccccc2-c2c3c1cc(C)cc3c1ccccc1[n+]2CC | – | 2.23 µM | – | 2.39 µM | – | 5.15 µM | – | 3.21 µM | – | 4.29 µM | – | – | – | 2.12 µM | – | 13.8 µM | 2.51 µM | 3.92 µM | – | –
Cc1cccc(C2=C/C(=C(\SS/C(C(=O)c3ccc(OCC(=O)O)c(Cl)c3Cl)=C3\C=C(c4cccc(C)c4)SS3)C(=O)c3ccc(OCC(=O)O)c(Cl)c3Cl)SS2)c1 | – | 38.5 µM | – | 50.8 µM | – | > 100 µM | – | > 85.6 µM | – | 39.8 µM | – | – | – | 36.2 µM | – | > 100 µM | 39.9 µM | > 75 µM | – | –
